From ChEMBL document CHEMBL1146311, “Carbonic anhydrase activators: L-Adrenaline plugs the active site entrance of isozyme II, activating better isoforms I, IV, VA, VII, and XIV” (Bioorg Med Chem Lett, 2007)

How the values were obtained:
[1] = molecular target: Carbonic anhydrase 7 (Homo sapiens) (UniProt P43166)
Description: Activation of human recombinant CA7 by CO2 hydration method

[2] = molecular target: Carbonic anhydrase 4 (Homo sapiens) (UniProt P22748)
Description: Activation of human recombinant CA4 by CO2 hydration method

[3] = molecular target: Carbonic anhydrase 1 (Homo sapiens) (UniProt P00915)
Description: Activation of human recombinant CA1 by CO2 hydration method

[4] = molecular target: Carbonic anhydrase 5A, mitochondrial (Homo sapiens) (UniProt P35218)
Description: Activation of human recombinant CA5A by CO2 hydration method

[5] = molecular target: Carbonic anhydrase 2 (Homo sapiens) (UniProt P00918)
Description: Activation of human recombinant CA2 by CO2 hydration method

[6] = molecular target: Carbonic anhydrase 14 (Homo sapiens) (UniProt Q9ULX7)
Description: Activation of human recombinant CA14 by CO2 hydration method

[7] = tested on: NCCc1c[nH]cn1; details: Homo sapiens; 10 uM
Description: (§1) Activity of human recombinant CA1 at 10 uM by stopped-flow technique

[8] = tested on: CNC[C@H](O)c1ccc(O)c(O)c1; details: Homo sapiens; 10 uM
Description: as §1

[9] = tested on: NCCc1c[nH]cn1; details: Homo sapiens; 10 uM; remark: listed apart in the source
Description: (§2) Activity of human recombinant CA2 at 10 uM by stopped-flow technique

[10] = tested on: CNC[C@H](O)c1ccc(O)c(O)c1; details: Homo sapiens; 10 uM; remark: listed apart in the source
Description: as §2

Sequence of Carbonic anhydrase 4 (Homo sapiens) (P22748 whole entry): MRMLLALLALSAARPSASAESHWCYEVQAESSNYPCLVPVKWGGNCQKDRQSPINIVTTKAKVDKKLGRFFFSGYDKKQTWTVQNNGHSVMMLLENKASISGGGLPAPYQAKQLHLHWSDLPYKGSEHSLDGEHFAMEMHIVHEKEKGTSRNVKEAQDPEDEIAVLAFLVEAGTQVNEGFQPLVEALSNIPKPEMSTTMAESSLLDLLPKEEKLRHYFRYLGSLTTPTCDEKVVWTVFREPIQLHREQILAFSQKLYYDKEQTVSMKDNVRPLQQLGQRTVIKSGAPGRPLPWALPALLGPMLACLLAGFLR
Sequence of Carbonic anhydrase 1 (Homo sapiens), P00915 (P00915 whole entry): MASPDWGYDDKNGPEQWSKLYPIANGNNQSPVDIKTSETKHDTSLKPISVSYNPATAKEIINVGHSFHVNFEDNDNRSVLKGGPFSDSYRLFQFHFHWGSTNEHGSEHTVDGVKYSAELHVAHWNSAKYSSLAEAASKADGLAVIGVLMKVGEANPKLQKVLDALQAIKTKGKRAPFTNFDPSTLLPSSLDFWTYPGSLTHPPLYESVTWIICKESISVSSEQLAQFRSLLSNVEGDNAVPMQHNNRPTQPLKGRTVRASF
Sequence of Carbonic anhydrase 14 (Homo sapiens) (Q9ULX7 whole entry): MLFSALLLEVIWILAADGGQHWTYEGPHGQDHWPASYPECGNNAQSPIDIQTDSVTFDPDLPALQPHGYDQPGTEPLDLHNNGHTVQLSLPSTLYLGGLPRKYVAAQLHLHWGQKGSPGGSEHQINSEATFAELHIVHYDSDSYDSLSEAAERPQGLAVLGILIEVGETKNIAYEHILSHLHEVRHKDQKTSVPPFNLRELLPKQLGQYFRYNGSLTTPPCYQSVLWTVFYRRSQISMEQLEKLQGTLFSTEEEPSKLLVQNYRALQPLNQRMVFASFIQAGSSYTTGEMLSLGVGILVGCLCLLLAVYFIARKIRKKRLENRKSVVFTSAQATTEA
Sequence of Carbonic anhydrase 7 (Homo sapiens) (P43166 whole entry): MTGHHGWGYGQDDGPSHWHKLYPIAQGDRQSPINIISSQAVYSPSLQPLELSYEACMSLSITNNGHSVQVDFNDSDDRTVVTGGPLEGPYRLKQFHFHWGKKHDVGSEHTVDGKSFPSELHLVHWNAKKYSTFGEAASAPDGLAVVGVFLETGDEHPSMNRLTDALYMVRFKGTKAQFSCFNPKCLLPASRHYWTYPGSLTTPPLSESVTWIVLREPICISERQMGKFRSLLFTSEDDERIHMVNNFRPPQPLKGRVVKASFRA
Sequence of Carbonic anhydrase 1 (Homo sapiens) (P00915 2-261 limits assumed): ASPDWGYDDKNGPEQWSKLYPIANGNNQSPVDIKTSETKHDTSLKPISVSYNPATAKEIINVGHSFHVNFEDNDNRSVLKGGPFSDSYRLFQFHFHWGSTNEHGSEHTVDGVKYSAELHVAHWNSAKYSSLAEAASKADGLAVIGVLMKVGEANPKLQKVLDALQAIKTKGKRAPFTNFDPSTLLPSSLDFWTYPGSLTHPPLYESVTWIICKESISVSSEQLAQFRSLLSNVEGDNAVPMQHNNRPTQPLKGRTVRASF
Sequence of Carbonic anhydrase 5A, mitochondrial (Homo sapiens) (P35218 whole entry): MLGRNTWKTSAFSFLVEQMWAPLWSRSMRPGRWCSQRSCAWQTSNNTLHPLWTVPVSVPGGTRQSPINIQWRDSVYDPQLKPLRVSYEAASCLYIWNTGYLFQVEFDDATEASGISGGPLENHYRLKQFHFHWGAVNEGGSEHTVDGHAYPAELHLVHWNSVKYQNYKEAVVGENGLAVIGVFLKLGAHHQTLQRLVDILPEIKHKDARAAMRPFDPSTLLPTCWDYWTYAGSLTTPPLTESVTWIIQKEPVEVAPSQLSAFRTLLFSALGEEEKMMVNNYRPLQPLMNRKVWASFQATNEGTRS

| Ka [1] [µM] | Ka [2] [µM] | Ka [3] [µM] | Ka [4] [µM] | Ka [5] [µM] | Ka [6] [µM] | Compound | kcat [7] | kcat [8] | kcat [9] | kcat [10] |
| --- | --- | --- | --- | --- | --- | --- | --- | --- | --- | --- |
| 1.3 | 31 | 0.05 | 2.5 | 74 | 1.9 | NCCc1c[nH]cn1 |  |  |  |  |
|  |  |  |  |  |  | Carbonic anhydrase 1 (Homo sapiens), P00915 | 12.7 10^5/s | 10.4 10^5/s |  |  |
| 60 | 45 | 0.09 | 63 | 96 | 36 | CNC[C@H](O)c1ccc(O)c(O)c1 |  |  |  |  |
|  |  |  |  |  |  | Carbonic anhydrase 2 (Homo sapiens) (from UniProt P00918) |  |  | 2 10^6/s | 1.7 10^6/s |
